Experimental data taken from patent publication US20080261310A1, “IN VITRO ROOTING OF HOODIA PLANTS” (CONOPCO, INC., D/B/A/ UNILEVER, priority 2007, published 2008).

Tested on: Hoodia explants
Assay: In vitro rooting of Hoodia explants on rooting media (basal salts, phytohormones, charcoal)
Format: cell-based
Details: experiment 11 medium with just IBA or just NAA alone
Experimental: The explants are placed onto rooting medium 1-2 cm deep in the medium in an erect position. The distance between the explants is the same as for the multiplication phase, although they may be placed closer (i.e. about 0.5-1 cm apart), as they are no longer producing new shoots. The rooted plans are kept in the rooting medium under conditions of darkness at temperature of 26±2° C., typically for about 2-3 weeks, and later are placed under light until roots develop before going into the greenhouse for hardening. In all the multiplication and later rooting trials, the experiments were carried out in a randomised factorial design with at least four replicates per treatment. The student's t-test was used to determine significant difference between the phytohormone treatments. P values ≦0.05 was considered significant. This example investigated various concentrations basal salt medium, vitamins (those in M&S medium, always included at full strength), and various phytohormones on rooting. Each experiment was replicated four times and statistical analysis has been carried out as described above.

SMILES | root formation when experiment 11 was repeated with a single auxin
O=C(O)CCCc1c[nH]c2ccccc12 [IBA, indole-3-butyric acid] | no roots could be obtained
O=C(O)Cc1cccc2ccccc12 [NAA, α-naphthalene acetic acid] | no roots could be obtained
